Data: patent publication US20120058989A1, “ANTIBACTERIAL FLUOROQUINOLONE ANALOGS” (Achaogen, Inc., priority 2008, published 2012)
In brackets after ≈: the same amount, converted by molar mass.

Columns and labels:
Experiment in all cases: MIC, CLSI broth microdilution
Format in all cases: cell-based
[1] = test system: S. aureus ASAU001 (Fluoroquinolone-susceptible, ATCC29213); conditions: for MIC ASAU 001: Table 2; for MIC: Staphylococcus aureus, Table 2, read-out: MIC ASAU 001
Outline: (§1)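 CLSI M7-A7 broth microdilution in Mueller Hinton Broth using two-fold compound serial dilutions. Inoculum was prepared from the previous day's agar colonies at a final 5×10^5 CFU/mL. Plates were incubated at 35° C for 20 hours in ambient air.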

[2] = test system: A. baumannii AABA1009 (Fluoroquinolone-resistant); conditions: for MIC AABA 1009: Table 2; for MIC: Acinetobacter baumannii, Table 2, read-out: MIC AABA 1009
Outline: as §1

[3] = test system: E. coli AECO066 (Fluoroquinolone-resistant); conditions: for MIC AECO 066: Table 2; for MIC: Escherichia coli, Table 2, read-out: MIC AECO 066
Outline: as §1

[4] = test system: S. pneumoniae ASPN1027 (Fluoroquinolone-resistant); conditions: for MIC ASPN 1027: Table 2; for MIC: Streptococcus pneumoniae, Table 2, read-out: MIC ASPN 1027
Outline: as §1

[5] = test system: A. baumannii AABA1065 (Fluoroquinolone-susceptible); conditions: for MIC AABA 1065: Table 2; for MIC: Acinetobacter baumannii, Table 2, read-out: MIC AABA 1065
Outline: as §1

[6] = test system: S. aureus ASAU1031 (Fluoroquinolone-resistant); conditions: for MIC ASAU 1031: Table 2; for MIC: Staphylococcus aureus, Table 2, read-out: MIC ASAU 1031
Outline: as §1

[7] = test system: S. pneumoniae ASPN001 (Fluoroquinolone-susceptible, ATCC49619); conditions: for MIC ASPN 001: Table 2; for MIC: Streptococcus pneumoniae, Table 2, read-out: MIC ASPN 001
Outline: as §1

[8] = test system: P. aeruginosa APAE054 (Fluoroquinolone-resistant); conditions: for MIC APAE 054: Table 2; for MIC: Pseudomonas aeruginosa, Table 2, read-out: MIC APAE 054
Outline: as §1

[9] = test system: P. aeruginosa APAE001 (Fluoroquinolone-susceptible, ATCC27853); conditions: for MIC APAE 001: Table 2; for MIC: Pseudomonas aeruginosa, Table 2, read-out: MIC APAE 001
Outline: as §1

[10] = test system: E. coli AECO001 (Fluoroquinolone susceptible, ATCC25922); conditions: Table 2, 35° C., 20 hours; for MIC: Escherichia coli, read-out: MIC AECO 001
Outline: as §1

SMILES	MIC ASAU 001 [1]	MIC AABA 1009 [2]	MIC AECO 066 [3]	MIC ASPN 1027 [4]	MIC ASAU 1031 [6]	MIC APAE 054 [8]	MIC APAE 001 [9]	MIC [1]	MIC [2]	MIC [3]	MIC [4]	MIC [5]	MIC [6]	MIC [7]	MIC [8]	MIC [9]	MIC [10]	MIC AABA 1065 [5]	MIC ASPN 001 [7]	MIC AECO 001 [10]
N[C@@H]1CCN2c3c(F)cc4c(=O)c(C(=O)O)cn(C5CC5)c4c3CNC[C@H]12.O=C(O)C(F)(F)F.O=C(O)C(F)(F)F [26/17, (3aR,4R)-4-Amino-13-cyclopropyl-8-fluoro-10-oxo-2,3,3a,4,5,6,10,13-octahydro-1H-pyrrolo[2′,1′:3,4][1,4]diazepino[5,6-h]quinoline-11-carboxylic acid bis(trifluoroacetate)]	B (MIC's of greater than 1.0 μg/mL to 8.0 μg/mL = B)	C (MIC's of greater than 8.0 μg/mL = C)	C (MIC's of greater than 8.0 μg/mL = C)	C (MIC's of greater than 8.0 μg/mL = C)	C (MIC's of greater than 8.0 μg/mL = C)	C (MIC's of greater than 8.0 μg/mL = C)	B (MIC's of greater than 1.0 μg/mL to 8.0 μg/mL = B)											B (MIC's of greater than 1.0 μg/mL to 8.0 μg/mL = B)	B (MIC's of greater than 1.0 μg/mL to 8.0 μg/mL = B)	A (MIC's of 1.0 μg/mL or less = A)
O=C(O)c1cn(C2CC2)c2c3c(c(F)cc2c1=O)N1CCCC1CC=C3 (stereo not drawn) [27/5, 4-Cyclopropyl-12-fluoro-1-oxo-4,7,7a,8,9,10-hexahydro-1H-pyrrolo[1′,2′:1,7]azepino[2,3-h]quinoline-2-carboxylic acid]	A (MIC's of 1.0 μg/mL or less = A)	C (MIC's of greater than 8.0 μg/mL = C)	C (MIC's of greater than 8.0 μg/mL = C)	C (MIC's of greater than 8.0 μg/mL = C)	B (MIC's of greater than 1.0 μg/mL to 8.0 μg/mL = B)	C (MIC's of greater than 8.0 μg/mL = C)	C (MIC's of greater than 8.0 μg/mL = C)											B (MIC's of greater than 1.0 μg/mL to 8.0 μg/mL = B)	A (MIC's of 1.0 μg/mL or less = A)	A (MIC's of 1.0 μg/mL or less = A)
O=C(O)c1cn(C2CC2)c2c3c(c(F)cc2c1=O)N1CCCC1CCC3 (stereo not drawn) [27/7, 4-Cyclopropyl-12-fluoro-1-oxo-4,5,6,7,7a,8,9,10-octahydro-1H-pyrrolo[1′,2′:1,7]azepino[2,3-h]quinoline-2-carboxylic acid]	A (MIC's of 1.0 μg/mL or less = A)	C (MIC's of greater than 8.0 μg/mL = C)	C (MIC's of greater than 8.0 μg/mL = C)	C (MIC's of greater than 8.0 μg/mL = C)	B (MIC's of greater than 1.0 μg/mL to 8.0 μg/mL = B)	C (MIC's of greater than 8.0 μg/mL = C)	C (MIC's of greater than 8.0 μg/mL = C)											C (MIC's of greater than 8.0 μg/mL = C)	B (MIC's of greater than 1.0 μg/mL to 8.0 μg/mL = B)	B (MIC's of greater than 1.0 μg/mL to 8.0 μg/mL = B)
O=C(O)c1cn(C2CC2)c2c3c(c(F)cc2c1=O)N1CCCC1CC(O)C3O (stereo not drawn) [27/9, 4-Cyclopropyl-12-fluoro-5,6-dihydroxy-1-oxo-4,5,6,7,7a,8,9,10-octahydro-1H-pyrrolo[1′,2′:1,7]azepino[2,3-h]quinoline-2-carboxylic acid]	B (MIC's of greater than 1.0 μg/mL to 8.0 μg/mL = B)	C (MIC's of greater than 8.0 μg/mL = C)	C (MIC's of greater than 8.0 μg/mL = C)	C (MIC's of greater than 8.0 μg/mL = C)	C (MIC's of greater than 8.0 μg/mL = C)	C (MIC's of greater than 8.0 μg/mL = C)	C (MIC's of greater than 8.0 μg/mL = C)											B (MIC's of greater than 1.0 μg/mL to 8.0 μg/mL = B)	C (MIC's of greater than 8.0 μg/mL = C)	B (MIC's of greater than 1.0 μg/mL to 8.0 μg/mL = B)
O=C1Cc2c(c(F)cc3c(=O)c(C(=O)O)cn(C4CC4)c23)N2CCCC2C1 (stereo not drawn) [27/10, 4-Cyclopropyl-12-fluoro-1,6-dioxo-4,5,6,7,7a,8,9,10-octahydro-1H-pyrrolo[1′,2′:1,7]azepino[2,3-h]quinoline-2-carboxylic acid]	B (MIC's of greater than 1.0 μg/mL to 8.0 μg/mL = B)	C (MIC's of greater than 8.0 μg/mL = C)	C (MIC's of greater than 8.0 μg/mL = C)	C (MIC's of greater than 8.0 μg/mL = C)	C (MIC's of greater than 8.0 μg/mL = C)	C (MIC's of greater than 8.0 μg/mL = C)	C (MIC's of greater than 8.0 μg/mL = C)											B (MIC's of greater than 1.0 μg/mL to 8.0 μg/mL = B)	C (MIC's of greater than 8.0 μg/mL = C)	B (MIC's of greater than 1.0 μg/mL to 8.0 μg/mL = B)
O=C(O)c1cn(C2CC2)c2c3c(c(F)cc2c1=O)N1CCCC1CC(=NO)C3 (stereo not drawn) [27/12, 4-Cyclopropyl-12-fluoro-6-(hydroxyimino)-1-oxo-4,5,6,7,7a,8,9,10-octahydro-1H-pyrrolo[1′,2′:1,7]azepino[2,3-h]quinoline-2-carboxylic acid]	A (MIC's of 1.0 μg/mL or less = A)	C (MIC's of greater than 8.0 μg/mL = C)	C (MIC's of greater than 8.0 μg/mL = C)	C (MIC's of greater than 8.0 μg/mL = C)	B (MIC's of greater than 1.0 μg/mL to 8.0 μg/mL = B)	C (MIC's of greater than 8.0 μg/mL = C)	C (MIC's of greater than 8.0 μg/mL = C)											B (MIC's of greater than 1.0 μg/mL to 8.0 μg/mL = B)	B (MIC's of greater than 1.0 μg/mL to 8.0 μg/mL = B)	B (MIC's of greater than 1.0 μg/mL to 8.0 μg/mL = B)
O=C(O)c1cn(C2CC2)c2c3c(c(F)cc2c1=O)N1CCCC1CCO3 (stereo not drawn) [32/1]								≤ 1 µg/mL	> 8 µg/mL	> 8 µg/mL	> 8 µg/mL	1 to 8 µg/mL (≈ 2.79 to 22.3 µM)	> 8 µg/mL	1 to 8 µg/mL (≈ 2.79 to 22.3 µM)	> 8 µg/mL	> 8 µg/mL	≤ 1 µg/mL			

Further lines, with some results ahead:

MIC ASAU 001 [1]	MIC AABA 1009 [2]	MIC AECO 066 [3]	MIC ASPN 1027 [4]	MIC ASAU 1031 [6]	MIC APAE 054 [8]	MIC APAE 001 [9]	MIC [1]	MIC [2]	MIC [3]	MIC [4]	MIC [5]	MIC [6]	MIC [7]	MIC [8]	MIC [9]	MIC [10]	SMILES	MIC AABA 1065 [5]	MIC ASPN 001 [7]	MIC AECO 001 [10]
A (MIC's of 1.0 μg/mL or less = A)	C (MIC's of greater than 8.0 μg/mL = C)	C (MIC's of greater than 8.0 μg/mL = C)	C (MIC's of greater than 8.0 μg/mL = C)	C (MIC's of greater than 8.0 μg/mL = C)	C (MIC's of greater than 8.0 μg/mL = C)	C (MIC's of greater than 8.0 μg/mL = C)											CON=C1Cc2c(c(F)cc3c(=O)c(C(=O)O)cn(C4CC4)c23)N2CCCC2C1 (stereo not drawn) [27/11, 4-Cyclopropyl-12-fluoro-6-(methoxyimino)-1-oxo-4,5,6,7,7a,8,9,10-octahydro-1H-pyrrolo[1′,2′:1,7]azepino[2,3-h]quinoline-2-carboxylic acid]	B (MIC's of greater than 1.0 μg/mL to 8.0 μg/mL = B)	B (MIC's of greater than 1.0 μg/mL to 8.0 μg/mL = B)	B (MIC's of greater than 1.0 μg/mL to 8.0 μg/mL = B)
							≤ 1 µg/mL	> 8 µg/mL	> 8 µg/mL	1 to 8 µg/mL (≈ 2.71 to 21.7 µM)	≤ 1 µg/mL	1 to 8 µg/mL (≈ 2.71 to 21.7 µM)	≤ 1 µg/mL	> 8 µg/mL	≤ 1 µg/mL	≤ 1 µg/mL	N[C@H]1CC2CC=Cc3c(c(F)cc4c(=O)c(C(=O)O)cn(C5CC5)c34)N2C1 (stereo partly drawn) [32 /5]			
